From ChEMBL document CHEMBL4219147, “Design, synthesis, and structure-activity relationships of novel 4,7,12,12a-tetrahydro-5H-thieno[3',2':3,4]pyrido[1,2-b]isoquinoline and 5,8,12,12a-tetrahydro-6H-thieno[2',3':4,5]pyrido[2,1-a]isoquinoline derivatives as cellular activators of adenosine 5'-monophosphate-activated protein kinase …” (Bioorg Med Chem, 2018)

Legend:
Format in all cases: cell-based
L6 [1] = assay: Activation of AMPK in differentiated Sprague-Dawley rat L6 myotube cells assessed as glucose consumption at 5 uM after 12 hrs by colorimetric assay (reference value: 100 +/- 1.8%)
L6 [2] = assay: Activation of AMPK in differentiated Sprague-Dawley rat L6 myotube cells assessed as increase in glucose consumption at 5 to 20 uM after 12 hrs by colorimetric assay relative to control
[3] = Cytotoxicity against Sprague-Dawley rat L6 cells assessed as cell viability at 10 uM after 12 hrs by SRB assay (reference value: 100 +/- 1.8%); details: read-out: Activity
[4] = Cytotoxicity against Sprague-Dawley rat L6 cells assessed as cell viability at 20 uM after 12 hrs by SRB assay (reference value: 100 +/- 1.8%); details: read-out: Activity
L6 [5] = assay: Activation of AMPK in differentiated Sprague-Dawley rat L6 myotube cells assessed as glucose consumption at 20 uM after 12 hrs by colorimetric assay (reference value: 100 +/- 1.8%)
[6] = Cytotoxicity against Sprague-Dawley rat L6 cells assessed as cell viability at 5 uM after 12 hrs by SRB assay (reference value: 100 +/- 1.8%); details: read-out: Activity
L6 [7] = assay: Activation of AMPK in differentiated Sprague-Dawley rat L6 myotube cells assessed as glucose consumption at 10 uM after 12 hrs by colorimetric assay (reference value: 100 +/- 1.8%)
L6 [8] = assay: Inhibition of mitochondrial respiratory complex 1 in differentiated Sprague-Dawley rat L6 myotube cells assessed as mitochondrial membrane potential at 10 uM after 40 to 60 mins by JC-1 staining based fluorescence assay (reference value: 100 +/- 1.6%); design: scale not given: the % may be the effect or the level left

Compound	Activity (L6 [1]) [%]	fold change (FC) (L6 [2])	viability at 12 h, 10 µM [3] [%]	viability at 12 h, 20 µM [4] [%]	Activity (L6 [5]) [%]	viability at 12 h, 5 µM [6] [%]	Activity (L6 [7]) [%]	Activity (L6 [8]) [%]
COc1ccc(OC)c2c1CC1c3cc(Cc4ccc5c(c4)CCO5)sc3CCN1C2 (stereo not given)	200	2.1 to 2.7	103	103	212	101	212	
COc1ccc(OC)c2c1CC1c3cc(Cc4ccc(N(C)C)cc4)sc3CCN1C2 (stereo not given)	200	2	108	107	230	110	201	
COc1ccc(OC)c2c1CC1c3cc(Cc4nccs4)sc3CCN1C2 (stereo not given)	134	1.3 to 1.5	103	103	167	104	152	
COc1ccc(OC)c2c1CC1c3cc(Cc4ccc(Br)cc4)sc3CCN1C2 (stereo not given)	169	1.9	105	101	242	101	187	
COc1ccc(OC)c2c1CC1c3cc(Cc4ccc(C(F)(F)F)cc4)sc3CCN1C2 (stereo not given)	156	1.9	101	100	229	102	189	
COc1ccc(OC)c2c1CC1c3cc(Cc4cc(OC)c(OC)c(OC)c4)sc3CCN1C2 (stereo not given)	174	1.9	104	104	184	95.3	188	
COc1ccc(OC)c2c1CC1c3cc(Cc4ccc(N5CCOCC5)cc4)sc3CCN1C2 (stereo not given)	97.1	1.4	99.2	98.9	157	97.7	137	
COc1ccc(OC)c2c1CC1c3cc(Cc4ccc(NC(C)=O)cc4)sc3CCN1C2 (stereo not given)	121	1.3	97.2	94.9	142	96.2	130	
N#CC(C#N)=NNc1cccc(Cl)c1								42.9
COc1ccc(OC)c2c1CC1c3cc(Cc4ccc(N5CCN(C)CC5)cc4)sc3CCN1C2 (stereo not given)	168	1.7	104	107	181	106	169	
COc1ccc(OC)c2c1CC1c3cc(Cc4ccncc4)sc3CCN1C2 (stereo not given)	111	1.3 to 1.5	110	104	153	105	130	
COc1ccc(OC)c2c1CC1c3cc(Cc4ccccn4)sc3CCN1C2 (stereo not given)	140	1.3 to 1.5	103	103	172	104	148	
COc1ccc(OC)c2c1CC1c3cc(Cc4ccc(S(C)(=O)=O)cc4)sc3CCN1C2 (stereo not given)	128	1.1	102	101	97.9	101	106	
